These compounds were tested against T1, L3MBTL3 (Homo sapiens, UniProt Q96JM7) (assay: AlphaScreen methylated histone peptide competition assay). Conditions: compared with UNC2533; 12 and 13 after incubation time of 30 minutes.
T1 sequence (Q96JM7 225-555 limits assumed): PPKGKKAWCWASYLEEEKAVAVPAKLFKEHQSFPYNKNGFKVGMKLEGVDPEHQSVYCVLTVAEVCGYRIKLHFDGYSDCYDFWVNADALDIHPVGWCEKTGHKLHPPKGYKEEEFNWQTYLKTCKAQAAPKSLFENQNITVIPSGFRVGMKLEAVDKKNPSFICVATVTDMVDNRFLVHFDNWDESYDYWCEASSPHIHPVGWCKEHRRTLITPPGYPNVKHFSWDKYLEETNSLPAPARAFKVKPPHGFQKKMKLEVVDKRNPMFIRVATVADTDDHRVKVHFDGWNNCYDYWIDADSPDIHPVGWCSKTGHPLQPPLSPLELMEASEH
Format: binding
For `O=C(CCc1ccc(N2CCC(N3CCCC3)CC2)cc1)N1CCCC1` [compound 8], the “Fold drop in L3MBTL3 activity (AlphaScreen) relative to UNC2533” value was “more than 30 fold”. `c1cc(CN2CCCC2)ccc1CCN1CCCC1` [compound 7] was tested, and the “Fold drop in L3MBTL3 activity (AlphaScreen) relative to UNC2533” value was 20 fold. `O=C1CCN(CCc2ccc(N3CCC(N4CCCC4)CC3)cc2)C1` [compound 13] was tested, and the “Fold drop in L3MBTL3 activity (AlphaScreen) relative to UNC2533” value was 5 fold. With `c1cc(N2CCC(N3CCCCC3)CC2)ccc1CCN1CCCC1` [compound 2] the “Fold drop in L3MBTL3 activity (AlphaScreen) relative to UNC2533” value was 9 fold. In the case of `c1cc(N2CCC(N3CCCC3)CC2)ccc1N1CCC(N2CCCC2)CC1` [compound 10], the “Fold drop in L3MBTL3 activity (AlphaScreen) relative to UNC2533” value is reported as “about 5 fold”. In the case of `N#CC1CCN(CCc2ccc(N3CCC(N4CCCC4)CC3)cc2)C1` (stereo not shown) [compound 12], the “Fold drop in L3MBTL3 activity (AlphaScreen) relative to UNC2533” value is reported as 5 fold.

Each compound was assayed against T1, L3MBTL3 (assay: Isothermal titration calorimetry). Conditions: compared with UNC2533.
Format: binding
In the case of `c1cc(N2CCC(N3CCCCC3)CC2)ccc1CCN1CCCC1` [compound 2], the “Fold loss in L3MBTL3 activity by ITC relative to UNC2533” value is reported as 7 fold.

Reference: paper PMC3897169 (MedChemComm, 2013)
